Measurements published in PMC3480796 (Indian Journal of Pharmacology, 2012).

Target: cystic fibrosis transmembrane conductance regulator (CFTR) (Homo sapiens, UniProt P13569)
Test: apical chloride current
Type: cell-based

Chain of cystic fibrosis transmembrane conductance regulator (CFTR) (P13569 whole entry): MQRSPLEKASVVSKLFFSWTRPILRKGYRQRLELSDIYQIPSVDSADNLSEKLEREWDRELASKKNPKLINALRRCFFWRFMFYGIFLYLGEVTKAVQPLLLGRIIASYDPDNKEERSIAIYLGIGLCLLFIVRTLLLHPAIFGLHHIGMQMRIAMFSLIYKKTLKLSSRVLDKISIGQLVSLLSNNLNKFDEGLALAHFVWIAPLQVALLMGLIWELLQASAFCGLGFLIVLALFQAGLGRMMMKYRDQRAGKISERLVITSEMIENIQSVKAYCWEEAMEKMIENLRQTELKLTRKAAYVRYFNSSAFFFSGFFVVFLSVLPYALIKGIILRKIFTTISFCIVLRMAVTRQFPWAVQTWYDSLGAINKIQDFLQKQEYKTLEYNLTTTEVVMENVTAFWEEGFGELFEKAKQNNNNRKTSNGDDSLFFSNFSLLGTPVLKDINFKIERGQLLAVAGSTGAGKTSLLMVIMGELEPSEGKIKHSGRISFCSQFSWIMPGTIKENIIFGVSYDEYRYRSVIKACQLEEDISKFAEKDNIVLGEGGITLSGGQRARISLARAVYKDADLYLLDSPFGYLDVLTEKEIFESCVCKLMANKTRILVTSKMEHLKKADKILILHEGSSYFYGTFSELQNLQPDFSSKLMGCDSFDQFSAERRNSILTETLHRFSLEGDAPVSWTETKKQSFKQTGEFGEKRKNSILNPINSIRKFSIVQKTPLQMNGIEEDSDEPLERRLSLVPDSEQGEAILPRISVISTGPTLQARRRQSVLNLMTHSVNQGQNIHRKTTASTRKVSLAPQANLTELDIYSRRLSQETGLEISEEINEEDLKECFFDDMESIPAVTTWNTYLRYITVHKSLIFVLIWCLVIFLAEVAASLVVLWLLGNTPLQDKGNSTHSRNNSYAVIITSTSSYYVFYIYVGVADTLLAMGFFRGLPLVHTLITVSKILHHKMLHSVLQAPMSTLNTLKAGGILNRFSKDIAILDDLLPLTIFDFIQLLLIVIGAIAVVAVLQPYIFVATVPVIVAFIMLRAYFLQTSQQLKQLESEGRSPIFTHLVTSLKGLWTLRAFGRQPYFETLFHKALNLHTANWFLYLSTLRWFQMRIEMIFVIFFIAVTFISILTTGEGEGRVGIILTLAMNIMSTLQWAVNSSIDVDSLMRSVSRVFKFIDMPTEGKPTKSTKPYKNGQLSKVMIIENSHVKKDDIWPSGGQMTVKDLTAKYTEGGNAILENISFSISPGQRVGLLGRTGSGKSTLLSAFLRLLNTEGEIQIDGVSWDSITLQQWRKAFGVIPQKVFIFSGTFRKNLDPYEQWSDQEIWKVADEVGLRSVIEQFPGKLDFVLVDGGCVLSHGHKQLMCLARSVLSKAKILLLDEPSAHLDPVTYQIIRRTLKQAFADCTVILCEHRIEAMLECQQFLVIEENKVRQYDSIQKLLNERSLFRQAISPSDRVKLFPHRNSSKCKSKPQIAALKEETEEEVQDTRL

CCOC(=O)CSc1nc2ccccc2c(=O)n1-c1ccccc1C [DQA, ethyl 2-(4-oxo-3-o-tolyl-3,4-dihydroquinazolin-2-ylthio)acetate]
IC50: ~20 µM
